Measured values: ChEMBL document CHEMBL4428125, “8-Substituted 1,3-dimethyltetrahydropyrazino[2,1-f]purinediones: Water-soluble adenosine receptor antagonists and monoamine oxidase B inhibitors” (Bioorg Med Chem, 2016)
≈ marks a conversion by molar mass, not a printed value. Calls of active or inactive are those of the source. The calls are words filed in the database; no cut-off is given here.

What was measured:
[1] = target: T1, Amine oxidase [flavin-containing] A (Homo sapiens, UniProt P21397); assay: Inhibition of recombinant human MAO-A expressed in baculovirus infected BTI insect cells preincubated for 30 mins followed by addition of p-tyramine as substrate measured over 45 mins by Amplex Red MAO assay
T1 sequence (P21397 whole entry): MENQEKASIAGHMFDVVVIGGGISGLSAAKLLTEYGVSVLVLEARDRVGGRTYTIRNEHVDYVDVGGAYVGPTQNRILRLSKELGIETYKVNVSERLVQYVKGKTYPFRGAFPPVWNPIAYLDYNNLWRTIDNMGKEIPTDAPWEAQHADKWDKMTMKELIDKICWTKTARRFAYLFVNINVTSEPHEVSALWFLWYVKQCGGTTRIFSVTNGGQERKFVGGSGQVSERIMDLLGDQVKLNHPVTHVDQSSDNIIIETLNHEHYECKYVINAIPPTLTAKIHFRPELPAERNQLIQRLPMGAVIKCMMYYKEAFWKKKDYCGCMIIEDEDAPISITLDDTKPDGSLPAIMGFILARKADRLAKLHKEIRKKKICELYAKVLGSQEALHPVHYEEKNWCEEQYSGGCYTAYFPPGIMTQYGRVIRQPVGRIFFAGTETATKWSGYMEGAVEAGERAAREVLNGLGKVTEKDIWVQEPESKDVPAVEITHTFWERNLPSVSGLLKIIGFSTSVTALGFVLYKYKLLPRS

[2] = target: T2, Adenosine receptor A1 (Homo sapiens) (UniProt P30542); assay: Agonist activity at recombinant human A1 receptor expressed in CHO cells assessed as inhibition of forskolin-induced cAMP accumulation at 10 uM preincubated for 20 mins prior to forskolin-stimulation measure after 5 mins by liquid scintillation counting method; type: functional, cell-based
T2 sequence (whole entry): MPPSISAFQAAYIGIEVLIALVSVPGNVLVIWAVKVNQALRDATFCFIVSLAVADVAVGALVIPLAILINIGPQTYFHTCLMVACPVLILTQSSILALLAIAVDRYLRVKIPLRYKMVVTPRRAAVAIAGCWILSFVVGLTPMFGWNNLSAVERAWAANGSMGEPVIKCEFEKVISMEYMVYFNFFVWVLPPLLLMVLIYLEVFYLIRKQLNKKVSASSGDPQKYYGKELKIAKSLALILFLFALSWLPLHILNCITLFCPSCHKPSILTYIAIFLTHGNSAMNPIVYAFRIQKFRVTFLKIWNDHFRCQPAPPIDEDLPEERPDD

[3] = target: Adenosine receptor A2a (Rattus norvegicus, UniProt P30543); assay: Displacement of [3H]MSX from A2A receptor in rat brain striatum membranes measured after 30 mins by liquid scintillation counting method; type: cell membranes
Chain of Adenosine receptor A2a (Rattus norvegicus, UniProt P30543) (P30543 whole entry): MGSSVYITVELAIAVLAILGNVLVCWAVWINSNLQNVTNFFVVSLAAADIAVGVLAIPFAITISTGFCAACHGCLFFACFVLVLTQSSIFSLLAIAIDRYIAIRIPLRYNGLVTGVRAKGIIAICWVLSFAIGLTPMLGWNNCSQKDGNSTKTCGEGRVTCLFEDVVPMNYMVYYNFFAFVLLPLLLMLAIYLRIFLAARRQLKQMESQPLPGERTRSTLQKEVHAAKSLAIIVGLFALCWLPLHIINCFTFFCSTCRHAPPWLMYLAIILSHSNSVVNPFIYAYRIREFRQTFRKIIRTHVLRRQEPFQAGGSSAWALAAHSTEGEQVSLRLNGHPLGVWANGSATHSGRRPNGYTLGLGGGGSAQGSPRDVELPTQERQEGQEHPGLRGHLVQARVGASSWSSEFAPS

[4] = target: T3, Adenosine receptor A2a (Homo sapiens, UniProt P29274); assay: Agonist activity at recombinant human A2A receptor expressed in CHO cells assessed as increase in forskolin-induced cAMP level at 1 uM preincubated for 20 mins prior to forskolin-stimulation measure after 5 mins by liquid scintillation counting method; type: functional, cell-based
T3 sequence (P29274 whole entry): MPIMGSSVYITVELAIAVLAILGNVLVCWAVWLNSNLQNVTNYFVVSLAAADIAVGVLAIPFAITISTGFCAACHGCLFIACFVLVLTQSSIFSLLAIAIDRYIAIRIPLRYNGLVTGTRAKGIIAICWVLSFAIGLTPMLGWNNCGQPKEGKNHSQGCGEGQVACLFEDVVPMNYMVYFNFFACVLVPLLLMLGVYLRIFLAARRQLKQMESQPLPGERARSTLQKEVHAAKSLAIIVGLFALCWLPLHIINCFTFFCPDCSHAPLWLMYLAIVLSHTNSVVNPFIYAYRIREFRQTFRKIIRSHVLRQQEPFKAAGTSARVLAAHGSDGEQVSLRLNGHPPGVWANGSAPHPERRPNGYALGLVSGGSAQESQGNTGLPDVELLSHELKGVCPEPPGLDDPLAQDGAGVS

[5] = target: T2, Adenosine receptor A1 (Homo sapiens); assay: Agonist activity at recombinant human A1 receptor expressed in CHO cells assessed as inhibition of forskolin-induced cAMP accumulation at 1 uM preincubated for 20 mins prior to forskolin-stimulation measure after 5 mins by liquid scintillation counting method; type: functional, cell-based
[6] = target: T4, Amine oxidase [flavin-containing] B (Homo sapiens, UniProt P27338); assay: Inhibition of recombinant human MAO-B expressed in baculovirus infected BTI insect cells at 10 uM preincubated for 30 mins followed by addition of p-tyramine as substrate measured over 45 mins by Amplex Red MAO assay relative to control; settings: 0.75 h
T4 sequence (P27338 whole entry): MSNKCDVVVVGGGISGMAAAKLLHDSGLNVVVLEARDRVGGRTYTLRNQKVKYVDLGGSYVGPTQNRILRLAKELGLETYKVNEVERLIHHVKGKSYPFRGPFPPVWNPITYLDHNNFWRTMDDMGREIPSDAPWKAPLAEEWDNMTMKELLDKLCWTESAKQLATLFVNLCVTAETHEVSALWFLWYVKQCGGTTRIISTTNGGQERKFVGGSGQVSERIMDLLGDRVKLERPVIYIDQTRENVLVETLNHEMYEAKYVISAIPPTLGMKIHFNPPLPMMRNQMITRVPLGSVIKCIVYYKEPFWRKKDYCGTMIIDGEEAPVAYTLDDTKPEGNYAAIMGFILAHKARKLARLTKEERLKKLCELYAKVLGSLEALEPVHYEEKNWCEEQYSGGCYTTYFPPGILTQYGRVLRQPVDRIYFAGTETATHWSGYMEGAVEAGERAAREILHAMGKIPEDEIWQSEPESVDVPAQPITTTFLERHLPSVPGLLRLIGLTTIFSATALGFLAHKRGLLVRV

[7] = target: T3, Adenosine receptor A2a; assay: Displacement of [3H]MSX from human A2A receptor measured after 30 mins by liquid scintillation counting method
[8] = target: T5, Adenosine receptor A1 (Rattus norvegicus, UniProt P25099); assay: Displacement of [3H]CCPA from A1 receptor in rat brain cortex membranes by liquid scintillation counting method; type: cell membranes
T5 sequence (P25099 whole entry): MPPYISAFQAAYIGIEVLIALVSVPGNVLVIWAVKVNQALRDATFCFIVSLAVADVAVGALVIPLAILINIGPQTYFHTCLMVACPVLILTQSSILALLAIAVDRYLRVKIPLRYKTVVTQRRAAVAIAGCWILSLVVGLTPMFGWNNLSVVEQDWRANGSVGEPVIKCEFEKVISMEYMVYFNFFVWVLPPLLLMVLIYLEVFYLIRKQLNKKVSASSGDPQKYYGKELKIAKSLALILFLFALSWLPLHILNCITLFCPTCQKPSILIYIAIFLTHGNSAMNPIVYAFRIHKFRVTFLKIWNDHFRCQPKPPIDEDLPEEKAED

[9] = target: T3, Adenosine receptor A2a; assay: Agonist activity at recombinant human A2A receptor expressed in CHO cells assessed as increase in forskolin-induced cAMP level at 10 uM preincubated for 20 mins prior to forskolin-stimulation measure after 5 mins by liquid scintillation counting method; type: functional, cell-based
[10] = target: T6, Adenosine receptor A2b (Homo sapiens) (UniProt P29275); assay: Displacement of [3H]PSB-603 from human A2B receptor expressed in CHO cell membrane at 1 uM relative to control; type: cell membranes
T6 sequence (whole entry): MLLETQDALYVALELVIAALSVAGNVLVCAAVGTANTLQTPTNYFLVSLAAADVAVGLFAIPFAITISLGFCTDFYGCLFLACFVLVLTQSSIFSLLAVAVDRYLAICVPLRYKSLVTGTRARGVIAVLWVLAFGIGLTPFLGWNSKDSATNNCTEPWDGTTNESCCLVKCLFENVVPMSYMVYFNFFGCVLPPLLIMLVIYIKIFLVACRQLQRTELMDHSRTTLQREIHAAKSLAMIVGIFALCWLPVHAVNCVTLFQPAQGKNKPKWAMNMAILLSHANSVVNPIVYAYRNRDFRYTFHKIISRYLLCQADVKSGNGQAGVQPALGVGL

[11] = target: T7, Adenosine receptor A3 (Homo sapiens, UniProt P0DMS8); assay: Displacement of [3H]PSB-11 from human A3 receptor expressed in CHO cell membrane by liquid scintillation counting method relative to control; type: cell membranes
T7 sequence (P0DMS8 whole entry): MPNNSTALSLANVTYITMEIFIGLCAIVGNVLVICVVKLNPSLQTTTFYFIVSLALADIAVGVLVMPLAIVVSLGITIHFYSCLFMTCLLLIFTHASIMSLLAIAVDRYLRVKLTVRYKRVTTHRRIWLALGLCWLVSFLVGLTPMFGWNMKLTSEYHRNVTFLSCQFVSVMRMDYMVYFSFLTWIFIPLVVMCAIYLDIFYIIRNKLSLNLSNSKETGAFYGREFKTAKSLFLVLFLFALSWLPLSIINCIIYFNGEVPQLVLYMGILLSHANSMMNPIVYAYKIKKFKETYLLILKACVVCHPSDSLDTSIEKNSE

[12] = target: T8, Adenosine receptor A2b (Homo sapiens, UniProt P29275); assay: Displacement of [3H]PSB-603 from human A2B receptor expressed in CHO cell membrane; type: cell membranes
T8 sequence (P29275 whole entry): T6 sequence (whole entry)

[13] = target: T1, Amine oxidase [flavin-containing] A; assay: Inhibition of recombinant human MAO-A expressed in baculovirus infected BTI insect cells at 10 uM preincubated for 30 mins followed by addition of p-tyramine as substrate measured over 45 mins by Amplex Red MAO assay relative to control; settings: 0.75 h
[14] = target: T9, Adenosine receptor A3 (Homo sapiens) (UniProt P0DMS8); assay: Displacement of [3H]PSB-11 from human A3 receptor expressed in CHO cell membrane at 10 uM by liquid scintillation counting method relative to control relative to control; type: cell membranes
T9 sequence (whole entry): T7 sequence (P0DMS8 whole entry)

[15] = target: T10, Adenosine receptor A1 (Homo sapiens, UniProt P30542); assay: Displacement of [3H]CCPA from human A1 receptor expressed in CHO cell membrane by liquid scintillation counting method; type: cell membranes
T10 sequence (P30542 whole entry): T2 sequence (whole entry)

[16] = organism: Homo sapiens; assay: Selectivity ratio, ratio of Ki for human A2A receptor to Ki for human A1 receptor
[17] = target: T4, Amine oxidase [flavin-containing] B; assay: Inhibition of recombinant human MAO-B expressed in baculovirus infected BTI insect cells preincubated for 30 mins followed by addition of p-tyramine as substrate measured over 45 mins by Amplex Red MAO assay
[18] = Thermodynamic solubility of the compound at pH 7.4; type: physicochemical; settings: buffer, read-out: Therm_solubility
[19] = Thermodynamic solubility of the compound at pH 4; type: physicochemical; settings: buffer, read-out: Therm_solubility
[20] = Thermodynamic solubility of the compound at pH 1; type: physicochemical; settings: buffer, read-out: Therm_solubility
[21] = target: T11, Adenosine receptor A1 (Rattus norvegicus) (UniProt P25099); assay: Displacement of [3H]CCPA from A1 receptor in rat brain cortex membranes at 1.5 uM by liquid scintillation counting method; type: cell membranes
T11 sequence (whole entry): T5 sequence (P25099 whole entry)

[22] = target: T9, Adenosine receptor A3 (Homo sapiens); assay: Displacement of [3H]PSB-11 from human A3 receptor expressed in CHO cell membrane at 1 uM by liquid scintillation counting method relative to control relative to control; type: cell membranes
[23] = target: T5, Adenosine receptor A1; assay: Displacement of [3H]CCPA from rat A1 receptor by liquid scintillation counting method
[24] = target: T3, Adenosine receptor A2a; assay: Displacement of [3H]MSX from human A2A receptor by liquid scintillation counting method
[25] = target: T5, Adenosine receptor A1; assay: Displacement of [3H]MSX from rat A1 receptor measured after 75 mins by liquid scintillation counting method
[26] = target: T6, Adenosine receptor A2b (Homo sapiens); assay: Displacement of [3H]PSB-603 from human A2B receptor expressed in CHO cell membrane measured after 75 mins by liquid scintillation counting method relative to control; type: cell membranes
[27] = target: T8, Adenosine receptor A2b; assay: Displacement of [3H]PSB-603 from human A2B receptor expressed in CHO cell membrane measured after 75 mins by liquid scintillation counting method; type: cell membranes
[28] = target: Adenosine receptor A2a (Rattus norvegicus) (UniProt P30543); assay: Displacement of [3H]MSX from A2A receptor in rat brain striatum membranes at 1 uM measured after 30 mins by liquid scintillation counting method relative to control; type: cell membranes
Chain of Adenosine receptor A2a (Rattus norvegicus) (P30543 whole entry): as the sequence (P30543 whole entry) above

[29] = target: T6, Adenosine receptor A2b (Homo sapiens); assay: Displacement of [3H]PSB-603 from human A2B receptor expressed in CHO cell membrane at […] relative to control; type: cell membranes

Activity [2]	Ki [3]	Activity [4]	Activity [5]	inhibition at 10 µM [6]	Ki [7]	Ki [8]	Activity [9]	Activity [10]	Ki [11]	Ki [12]	Activity [14]	Ki [15]	IC50 [17]	solubility thermodynamic [18]	Activity [21]	Activity [22]	Structure (SMILES)	other results
inactive	316 nM	inactive	inactive	44%	230 nM	352 nM	inactive	7%	> 10000 nM	> 1000 nM	34%	65.5 nM	> 10000 nM	4 µg/mL (≈ 10.3 µM)			Cn1c(=O)c2c(nc3n2CCN(CCCc2ccc(Cl)cc2)C3)n(C)c1=O	IC50 [1]: > 10000 nM; inhibition at 10 µM [13]: 12%; Ratio Ki [16]: 4
inactive	355 nM	inactive	inactive	54%	217 nM	157 nM	inactive	25%	7490 nM	> 1000 nM		236 nM	10000 nM	< 0.5 µg/mL			Cn1c(=O)c2c(nc3n2CCN(Cc2csc(-c4ccc(C(F)(F)F)cc4)n2)C3)n(C)c1=O	solubility thermodynamic [19]: < 0.5 µg/mL; solubility thermodynamic [20]: 200 µg/mL (≈ 420 µM)
	3900 nM					> 1500 nM		11%	> 1000 nM	> 1000 nM			132 nM		15%	2%	Cn1c(=O)c2c(nc3n2CCN(c2ccc(Br)cc2)C3)n(C)c1=O	
				36%					> 10000 nM		21%	265 nM	> 10000 nM				Cn1c(=O)c2c(nc3n2CCN(Cc2ccccc2)C3)n(C)c1=O	Ki [23]: 79.3 nM; Ki [24]: 1060 nM; Ki [25]: 598 nM; Activity [26]: 15%; Ki [27]: > 1000 nM
inactive	121 nM	inactive	inactive	33%	203 nM	166 nM	inactive	3%	≥ 10000 nM	> 1000 nM	46%	642 nM	> 10000 nM	700 µg/mL (≈ 1690 µM)			Cn1c(=O)c2c(nc3n2CCN(Cc2csc(-c4cccs4)n2)C3)n(C)c1=O	
									> 1000 nM			791 nM	197 nM			13%	Cn1c(=O)c2c(nc3n2CCN(Cc2ccc(Cl)c(Cl)c2)C3)n(C)c1=O	IC50 [1]: > 10000 nM; Ki [23]: 351 nM; Ki [24]: 1510 nM; Ki [25]: 322 nM; inhibition at 10 µM [13]: 5%; Activity [26]: 15%; Ki [27]: > 1000 nM
	> 1000 nM			39%		> 1500 nM			8720 nM				> 10000 nM		21%		Cn1c(=O)c2c(nc3n2CCN(Cc2nocc2-c2ccccc2)C3)n(C)c1=O	Activity [28]: 5%; inhibition [29]: 18%
	> 10000 nM			15%		> 1500 nM		9%	> 1000 nM	> 1000 nM			> 10000 nM		1%	2%	Cn1c(=O)c2c(nc3n2CCN(c2ccc(Cl)cc2)C3)n(C)c1=O	Activity [28]: 34%
